Experimental data from patent US9260395B2, “Inhibitors of viral replication, their process of preparation and their therapeutical uses” (priority 2012, dated 2016).

Tested on: NL4-3 strain of HIV-1
Test: Cyto-protection (CellTiter-Glo viability) assay of MT4 cells infected with NL4-3 virus; inhibition of HIV replication
Assay type: cell-based
Settings: Human immunodeficiency virus 1, NL43, 120 h; concentration leading to 50% of cyto-protection; MT4 cells infected with NL4-3 virus; 5 days incubation; CellTiter-Glo; read-out: EC50
Experimental: Preparation of Virus stock of the NL4-3 strain of HIV-1 (Adachi et al, J Virol, 1986, 59(2):284-91).
The virus was prepared as described in Lopez et al (Lopez et al, Proc Natl Acad Sci USA., 2006, 103(40):14947-52, by transfecting 2×10^6 293 T cells (CRL-1573, ATCC) with following modifications: 6 μg of NL4-3 proviral DNA molecular clone were mixed with Fugene 6 transfection reagent from Roche, and used according to manufacturer's instructions. Forty eight hours later, transfected cell supernatants were harvested, filtered through 0.45-μm-pore-size filters, quantified for HIV-1 p24 antigen by using a Innotest HIV antigen mAb assay (Ingen) according to manufacturer's instructions, and used in infection experiments.
Serial dilutions of compounds to be tested were prepared in complete RPMI medium from 10 mM DMSO stock solutions, and I in 96 well Falcon 353072 Microtest[…]distributed in a volume of 20™ tissue culture plate, in order to get 0.5% DMSO final concentration in each well, after the addition of infected cells. Control wells contained also 0.5% DMSO final concentration but no compound.
MT4 cells (from the NIH AIDS Research and Reference Reagent Program) in RPMI complete medium were counted (10×10^6 cells per well in Falcon 353047 Multiwell™ 24 well) and infected for 2 hours at 37°, at a multiplicity of infection (moi) of 0.0001-0.00001. Cells were then centrifuged 3 min at 3000 rpm, and washed two times in 1 ml PBS to remove viruses that have not entered in cells. Infected cells were resuspended in complete RPMI at 1.25×10^6 cells/ml and 80 μl of infected cells were distributed in each well containing compound to be tested or control wells. The plates were then incubated at 37° for 5 days.
Assay used to measure the inhibition of HIV replication by the compounds (according to Gregg S. Jones et al., Antimicrobial Agents and Chemotherapy, 2009, 53 (3): 1194-1203).
After 5 days of incubation, microplates were equilibrated to room temperature for 30 mn and then 50 μl of CellTiter-Glo reagent (Promega Biosciences, Inc., Madison Wis., USA) were added to each well. Cell lysis was carried out at room temperature during 10 min, 150μl of lysates were transferred in Packard Optiplate 96 well, and luminescence was read on a Fluoroskan (Thermo Scientific).
The EC50, or effective concentration 50, is the concentration of compound leading to 50% of cyto-protection in a Cell-Titer-Glo® viability assay based on MT4 cells infected with NL4-3 virus (table 1).

Q: For `CC1CC=C(c2nn(C)c(C(OC(C)(C)C)C(=O)O)c2-c2ccc3c(c2)CCCO3)CC1` (centres unmarked) [Example 31, 2-(tert-butoxy)-2-[4-(3,4-dihydro-2H-1-benzopyran-6-yl)-1-methyl-3-(4-methylcyclohex-1-en-1-yl)-1H-pyrazol-5-yl]acetic acid], which EC50 is on record?
A: 3.8 µM

Q: Which EC50 does the source give for `Cn1nc(C2=CCCC2(C)C)c(-c2ccc3c(c2)CCCO3)c1C(OC(C)(C)C)C(=O)O` (centres unmarked) [Example 32, 2-(tert-butoxy)-2-[4-(3,4-dihydro-2H-1-benzopyran-6-yl)-3-(5,5-dimethylcyclopent-1-en-1-yl)-1-methyl-1H-pyrazol-5-yl]acetic acid] here?
A: 3.2 µM

Q: With `CC(C)(C)OC(C(=O)O)c1c(-c2ccc3c(c2)CCCO3)c(-c2cccs2)nn1CC(F)(F)F` (centres unmarked) [Example 34, 2-(tert-butoxy)-2-[4-(3,4-dihydro-2H-1-benzopyran-6-yl)-3-(thiophen-2-yl)-1-(2,2,2-trifluoroethyl)-1H-pyrazol-5-yl]acetic acid] as the compound, how does the EC50 read?
A: 3.5 µM

Q: How did the EC50 turn out when `Cn1nc(-c2ccc(Cl)s2)c(-c2ccc3c(c2)CCCO3)c1C(OC(C)(C)C)C(=O)O` (centres unmarked) [Example 36, 2-(tert-butoxy)-2-[3-(5-chlorothiophen-2-yl)-4-(3,4-dihydro-2H-1-benzopyran-6-yl)-1-methyl-1H-pyrazol-5-yl]acetic acid] was run?
A: 2.7 µM

Q: `Cn1nc(-c2cc3c(s2)CCC3)c(-c2ccc3c(c2)CCCO3)c1C(OC(C)(C)C)C(=O)O` (centres unmarked) [Example 37, 2-(tert-butoxy)-2-(3-{4H,5H,6H-cyclopenta[b]thiophen-2-yl}-4-(3,4-dihydro-2H-1-benzopyran-6-yl)-1-methyl-1H-pyrazol-5-yl)acetic acid] was tested. Which EC50 did it give?
A: 3.3 µM

Q: Which EC50 does the source give for `Cn1nc(-c2csc3ccccc23)c(-c2ccc3c(c2)CCCO3)c1C(OC(C)(C)C)C(=O)O` (centres unmarked) [Example 38, 2-[3-benzo[b]thiophen-3-yl-4-(3,4-dihydro-2H-1-benzopyran-6-yl)-1-methyl-1H-pyrazol-5-yl]-2-(tert-butoxy)acetic acid] here?
A: 2.2 µM

Q: Which EC50 does the source give for `Cn1nc(-c2ccncc2)c(C2=CCC(C)(C)CC2)c1C(OC(C)(C)C)C(=O)O` (centres unmarked) [Example 39, 2-(tert-butoxy)-2-[4-(4,4-dimethylcyclohex-1-en-1-yl)-1-methyl-3-(pyridin-4-yl)-1H-pyrazol-5-yl]acetic acid] here?
A: 5.7 µM

Q: Which EC50 does the source give for `Cn1nc(-c2ccncc2)c(-c2ccc3c(c2)CCCO3)c1C(OC(C)(C)C)C(=O)O` (centres unmarked) [Example 40, 2-(tert-butoxy)-2-[4-(3,4-dihydro-2H-1-benzopyran-6-yl)-1-methyl-3-(pyridin-4-yl)-1H-pyrazol-5-yl]acetic acid] here?
A: 6 µM

Q: How did the EC50 turn out when `CC(C)C1CC=C(c2c(-c3ccccc3)nn(C)c2C(OC(C)(C)C)C(=O)O)CC1` (centres unmarked) [Example 41, 2-(tert-butoxy)-2-{1-methyl-3-phenyl-4-[4-(propan-2-yl)cyclohex-1-en-1-yl]-1H-pyrazol-5-yl}acetic acid] was run?
A: 6 µM

Q: For `Cn1nc(-c2cccs2)c(-c2cc(F)c3c(c2)CCCO3)c1C(OC(C)(C)C)C(=O)O` (centres unmarked) [Example 42, 2-(tert-butoxy)-2-[4-(8-fluoro-3,4-dihydro-2H-1-benzopyran-6-yl)-1-methyl-3-(thiophen-2-yl)-1H-pyrazol-5-yl]acetic acid], which EC50 is on record?
A: 1.8 µM

Q: With `Cn1nc(C2=CC(O)CCC2)c(-c2ccc3c(c2)CCCO3)c1C(OC(C)(C)C)C(=O)O` (centres unmarked) [Example 43, 2-(tert-butoxy)-2-[4-(3,4-dihydro-2H-1-benzopyran-6-yl)-3-(3-hydroxycyclohex-1-en-1-yl)-1-methyl-1H-pyrazol-5-yl]acetic acid] as the compound, how does the EC50 read?
A: 9.2 µM
